Data taken from US20260022142A1, “MACROCYCLIC IMMUNOMODULATORS” (Bristol-Myers Squibb Company, priority 2022, published 2026).
Bridge positions count the residues as written; N and C are the ends. Square brackets hold non-standard residues; d marks the D form. Peptide text beside a SMILES is read from it. * marks the point of attachment. ξ: configuration not given here. Phe(4-COOH) = N[C@@H](Cc1ccc(C(=O)O)cc1)C(=O)O; Bip = N[C@@H](Cc1ccc(-c2ccccc2)cc1)C(=O)O; hArg = N=C(N)NCCCC[C@H](N)C(=O)O; 4Pal = N[C@@H](Cc1ccncc1)C(=O)O; 3Thi = N[C@@H](Cc1ccsc1)C(=O)O; Cha = N[C@@H](CC1CCCCC1)C(=O)O; Cit = NC(=O)NCCC[C@H](N)C(=O)O; Thr(3ξ) = CC(O)[C@H](N)C(=O)O; Carboxymethyl = O=C(O)C*; Orn = NCCC[C@H](N)C(=O)O; Aun = NCCCCCCCCCCC(=O)O; Dab = NCC[C@H](N)C(=O)O; Dap = NC[C@H](N)C(=O)O; AEEA = NCCOCCOCC(=O)O

Biological target: T1, PD-1/PD-L1 interaction (PE-labeled human PD-L1-Ig binding to Jurkat cell line over-expressing human PD-1) (Homo sapiens, UniProt Q15116)
T1 construct: expressed in transfected cells; host or cells: Jurkat
T1 sequence (Q15116 25-288): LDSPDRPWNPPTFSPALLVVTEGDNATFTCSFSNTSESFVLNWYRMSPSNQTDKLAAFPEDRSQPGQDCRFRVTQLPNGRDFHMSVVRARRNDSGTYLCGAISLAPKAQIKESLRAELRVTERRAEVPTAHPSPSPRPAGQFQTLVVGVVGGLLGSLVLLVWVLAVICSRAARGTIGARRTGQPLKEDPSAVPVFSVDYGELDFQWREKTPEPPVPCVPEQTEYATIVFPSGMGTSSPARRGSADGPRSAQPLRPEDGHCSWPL
Test: Jurkat-PD-1 Cell Binding High-Content Screening Assay (CBA)
Format: cell-based
Settings: Jurkat cell line over-expressing human PD-1; PE-labeled PD-L1-Ig 20 nM final; read-out: Jurkat hPD1-PDL1 IC50
Summary of the method: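 Jurkat-hPD-1 cells, DMEM/10% FCS; cpd 2 h 37° C; PE-PD-L1-Ig 20 nM final, 1 h; 4% PFA fix + Hoechst 33342, 3× dPBS wash; high-content imaging read-out.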

## CC(C)C[C@H]1NC(=O)[C@H](CCCN)NC(=O)[C@H](C(C)C)NC(=O)[C@H](Cc2ccc(-c3ccccc3)cc2)NC(=O)[C@H](C(C)C)NC(=O)[C@H](Cc2c[nH]c3ccccc23)NC(=O)[C@H](CC(=O)O)NC(=O)[C@H](Cc2ccc(OCC(=O)O)cc2)NC(=O)[C@H](CCCCNC(=N)N)NC(=O)CSC[C@@H](C(=O)NCC(=O)NCCOCCOCC(=O)N[C@@H](CCCN)C(=O)NCCCCCCCCCCC(=O)O)NC(=O)[C@H](CCN)NC(=O)[C@H](C(C)C)NC(=O)[C@H](CC2CCCCC2)NC(=O)[C@H](CCN)NC1=O [Compound 3197] ({CH2CO}-[hArg]Y(Carboxymethyl)DWV[Bip]V[Orn][dL][Dab][Cha]V[Dab]CG[AEEA][Orn][Aun]-OH; thioether N-14)
  IC50: 0.0077 µM

## CC(C)C[C@H]1NC(=O)[C@H](CCCN)NC(=O)[C@H](C(C)C)NC(=O)[C@H](Cc2ccc(-c3ccccc3)cc2)NC(=O)[C@H](C(C)C)NC(=O)[C@H](Cc2c[nH]c3ccccc23)NC(=O)[C@H](CC(=O)O)NC(=O)[C@H](Cc2ccc(OCC(=O)O)cc2)NC(=O)[C@H](CCCCNC(=N)N)NC(=O)CSC[C@@H](C(=O)NCC(=O)NCCOCCOCC(=O)N[C@@H](CCCN)C(=O)NCCCCCCCCCCC(=O)O)NC(=O)[C@H](CCCN)NC(=O)[C@H](C(C)C)NC(=O)[C@H](CC2CCCCC2)NC(=O)[C@H](CCN)NC1=O [Compound 3198] ({CH2CO}-[hArg]Y(Carboxymethyl)DWV[Bip]V[Orn][dL][Dab][Cha]V[Orn]CG[AEEA][Orn][Aun]-OH; thioether N-14)
  IC50: 0.004 µM

## CC(C)C[C@H]1NC(=O)[C@H](CCCN)NC(=O)[C@H](C(C)C)NC(=O)[C@H](Cc2ccc(-c3ccccc3)cc2)NC(=O)[C@H](C(C)C)NC(=O)[C@H](Cc2c[nH]c3ccccc23)NC(=O)[C@H](CC(=O)O)NC(=O)[C@H](Cc2ccc(OCC(=O)O)cc2)NC(=O)[C@H](CCCCNC(=N)N)NC(=O)CSC[C@@H](C(=O)NCC(=O)NCCOCCOCC(=O)N[C@@H](CCCN)C(=O)NCCCCCCCCCCC(=O)O)NC(=O)[C@H](CCCCN)NC(=O)[C@H](C(C)C)NC(=O)[C@H](CC2CCCCC2)NC(=O)[C@H](CCN)NC1=O [Compound 3199] ({CH2CO}-[hArg]Y(Carboxymethyl)DWV[Bip]V[Orn][dL][Dab][Cha]VKCG[AEEA][Orn][Aun]-OH; thioether N-14)
  IC50: 0.0055 µM

## CC(C)C[C@H]1NC(=O)[C@H](CCCN)NC(=O)[C@H](C(C)C)NC(=O)[C@H](Cc2ccc(-c3ccccc3)cc2)NC(=O)[C@H](C(C)C)NC(=O)[C@H](Cc2c[nH]c3ccccc23)NC(=O)[C@H](CC(=O)O)NC(=O)[C@H](Cc2c[nH]cn2)NC(=O)[C@H](CCCCNC(=N)N)NC(=O)CSC[C@@H](C(=O)NCC(=O)NCCOCCOCC(=O)N[C@@H](CCCN)C(=O)NCCCCCCCCCCC(=O)O)NC(=O)[C@H](CO)NC(=O)[C@H](C(C)C)NC(=O)[C@H](CC2CCCCC2)NC(=O)[C@H](CCN)NC1=O [Compound 3200] ({CH2CO}-[hArg]HDWV[Bip]V[Orn][dL][Dab][Cha]VSCG[AEEA][Orn][Aun]-OH; thioether N-14)
  IC50: 0.0073 µM

## CC(C)C[C@H]1NC(=O)[C@H](CCCN)NC(=O)[C@H](C(C)C)NC(=O)[C@H](Cc2ccc(-c3ccccc3)cc2)NC(=O)[C@H](C(C)C)NC(=O)[C@H](Cc2c[nH]c3ccccc23)NC(=O)[C@H](CC(=O)O)NC(=O)[C@H](Cc2ccc(OCC(=O)O)cc2)NC(=O)[C@H](CCCCNC(=N)N)NC(=O)CSC[C@@H](C(=O)NCC(=O)NCCOCCOCC(=O)N[C@@H](CCCN)C(=O)NCCCCCCCCCCC(=O)O)NC(=O)[C@H](CCN)NC(=O)[C@H](C(C)C)NC(=O)[C@H](CC2CCCCC2)NC(=O)[C@H](CC(N)=O)NC1=O [Compound 3202] ({CH2CO}-[hArg]Y(Carboxymethyl)DWV[Bip]V[Orn][dL]N[Cha]V[Dab]CG[AEEA][Orn][Aun]-OH; thioether N-14)
  IC50: 0.0193 µM

## CC(C)C[C@H]1NC(=O)[C@H](CCCN)NC(=O)[C@H](C(C)C)NC(=O)[C@H](Cc2ccc(-c3ccccc3)cc2)NC(=O)[C@H](C(C)C)NC(=O)[C@H](Cc2c[nH]c3ccccc23)NC(=O)[C@H](CC(=O)O)NC(=O)[C@H](Cc2ccc(OCC(=O)O)cc2)NC(=O)[C@H](CCCCNC(=N)N)NC(=O)CSC[C@@H](C(=O)NCC(=O)NCCOCCOCC(=O)N[C@@H](CCCN)C(=O)NCCCCCCCCCCC(=O)O)NC(=O)[C@H](CCCN)NC(=O)[C@H](C(C)C)NC(=O)[C@H](CC2CCCCC2)NC(=O)[C@H](CC(N)=O)NC1=O [Compound 3203] ({CH2CO}-[hArg]Y(Carboxymethyl)DWV[Bip]V[Orn][dL]N[Cha]V[Orn]CG[AEEA][Orn][Aun]-OH; thioether N-14)
  IC50: 0.0284 µM

## CC(C)C[C@H]1NC(=O)[C@H](CCCN)NC(=O)[C@H](C(C)C)NC(=O)[C@H](Cc2ccc(-c3ccccc3)cc2)NC(=O)[C@H](C(C)C)NC(=O)[C@H](Cc2c[nH]c3ccccc23)NC(=O)[C@H](CC(=O)O)NC(=O)[C@H](Cc2ccc(OCC(=O)O)cc2)NC(=O)[C@H](CCCCNC(=N)N)NC(=O)CSC[C@@H](C(=O)NCC(=O)NCCOCCOCC(=O)N[C@@H](CCCN)C(=O)NCCCCCCCCCCC(=O)O)NC(=O)[C@H](CCCCN)NC(=O)[C@H](C(C)C)NC(=O)[C@H](CC2CCCCC2)NC(=O)[C@H](CC(N)=O)NC1=O [Compound 3204] ({CH2CO}-[hArg]Y(Carboxymethyl)DWV[Bip]V[Orn][dL]N[Cha]VKCG[AEEA][Orn][Aun]-OH; thioether N-14)
  IC50: 0.0127 µM

## CC(C)C[C@H]1NC(=O)[C@H](CCCN)NC(=O)[C@H](C(C)C)NC(=O)[C@H](Cc2ccc(-c3ccccc3)cc2)NC(=O)[C@H](C(C)C)NC(=O)[C@H](Cc2c[nH]c3ccccc23)NC(=O)[C@H](CC(=O)O)NC(=O)[C@H](Cc2ccc(OCC(=O)O)cc2)NC(=O)[C@H](Cc2ccc(OCC(=O)O)cc2)NC(=O)CSC[C@@H](C(=O)NCC(=O)NCCOCCOCC(=O)N[C@@H](CCCN)C(=O)NCCCCCCCCCCC(=O)O)NC(=O)[C@H](CCCN)NC(=O)[C@H](C(C)C)NC(=O)[C@H](CC2CCCCC2)NC(=O)[C@H](CC(N)=O)NC1=O [Compound 3205] ({CH2CO}-Y(Carboxymethyl)Y(Carboxymethyl)DWV[Bip]V[Orn][dL]N[Cha]V[Orn]CG[AEEA][Orn][Aun]-OH; thioether N-14)
  IC50: 0.0124 µM

## CC(C)C[C@H]1NC(=O)[C@H](CCCN)NC(=O)[C@H](C(C)C)NC(=O)[C@H](Cc2ccc(-c3ccccc3)cc2)NC(=O)[C@H](C(C)C)NC(=O)[C@H](Cc2c[nH]c3ccccc23)NC(=O)[C@H](CC(=O)O)NC(=O)[C@H](Cc2ccc(C(=O)O)cc2)NC(=O)[C@H](Cc2ccc(OCC(=O)O)cc2)NC(=O)CSC[C@@H](C(=O)NCC(=O)NCCOCCOCC(=O)N[C@@H](CCCN)C(=O)NCCCCCCCCCCC(=O)O)NC(=O)[C@H](CCCN)NC(=O)[C@H](C(C)C)NC(=O)[C@H](CC2CCCCC2)NC(=O)[C@H](CC(N)=O)NC1=O [Compound 3206] ({CH2CO}-Y(Carboxymethyl)[Phe(4-COOH)]DWV[Bip]V[Orn][dL]N[Cha]V[Orn]CG[AEEA][Orn][Aun]-OH; thioether N-14)
  IC50: 0.0245 µM

## CC(C)C[C@H]1NC(=O)[C@H](CCCN)NC(=O)[C@H](C(C)C)NC(=O)[C@H](Cc2ccc(-c3ccccc3)cc2)NC(=O)[C@H](C(C)C)NC(=O)[C@H](Cc2c[nH]c3ccccc23)NC(=O)[C@H](CC(=O)O)NC(=O)[C@H](Cc2ccc(OCC(=O)O)cc2)NC(=O)[C@H](Cc2ccncc2)NC(=O)CSC[C@@H](C(=O)NCC(=O)NCCOCCOCC(=O)N[C@@H](CCCN)C(=O)NCCCCCCCCCCC(=O)O)NC(=O)[C@H](CCCN)NC(=O)[C@H](C(C)C)NC(=O)[C@H](CC2CCCCC2)NC(=O)[C@H](CC(N)=O)NC1=O [Compound 3207] ({CH2CO}-[4Pal]Y(Carboxymethyl)DWV[Bip]V[Orn][dL]N[Cha]V[Orn]CG[AEEA][Orn][Aun]-OH; thioether N-14)
  IC50: 0.0174 µM

## CC(C)C[C@H]1NC(=O)[C@H](CCCNC(N)=O)NC(=O)[C@H](C(C)C)NC(=O)[C@H](Cc2ccc(-c3ccccc3)cc2)NC(=O)[C@H](C(C)C)NC(=O)[C@H](Cc2c[nH]c3ccccc23)NC(=O)[C@H](CC(=O)O)NC(=O)[C@H](Cc2ccc(OCC(=O)O)cc2)NC(=O)[C@H](Cc2ccsc2)NC(=O)CSC[C@@H](C(=O)NCCOCCOCC(=O)N[C@@H](CCCN)C(=O)NCCCCCCCCCCC(=O)O)NC(=O)[C@H](C(C)O)NC(=O)[C@H](C(C)C)NC(=O)[C@H](CC2CCCCC2)NC(=O)[C@H](CCN)NC1=O (stereo partly drawn) [Compound 3208] ({CH2CO}-[3Thi]Y(Carboxymethyl)DWV[Bip]V[Cit][dL][Dab][Cha]V[Thr(3ξ)]C[AEEA][Orn][Aun]-OH; thioether N-14)
  IC50: 0.603 µM

## CC(C)C[C@H]1NC(=O)[C@H](CN)NC(=O)[C@H](C(C)C)NC(=O)[C@H](Cc2ccc(-c3ccccc3)cc2)NC(=O)[C@H](C(C)C)NC(=O)[C@H](Cc2c[nH]c3ccccc23)NC(=O)[C@H](CC(=O)O)NC(=O)[C@H](Cc2ccc(OCC(=O)O)cc2)NC(=O)[C@H](Cc2ccsc2)NC(=O)CSC[C@@H](C(=O)NCCOCCOCC(=O)N[C@@H](CCCN)C(=O)NCCCCCCCCCCC(=O)O)NC(=O)[C@H](C(C)O)NC(=O)[C@H](C(C)C)NC(=O)[C@H](CC2CCCCC2)NC(=O)[C@H](CCN)NC1=O (stereo partly drawn) [Compound 3209] ({CH2CO}-[3Thi]Y(Carboxymethyl)DWV[Bip]V[Dap][dL][Dab][Cha]V[Thr(3ξ)]C[AEEA][Orn][Aun]-OH; thioether N-14)
  IC50: 0.0171 µM

## CC(C)C[C@H]1NC(=O)[C@H](CCN)NC(=O)[C@H](C(C)C)NC(=O)[C@H](Cc2ccc(-c3ccccc3)cc2)NC(=O)[C@H](C(C)C)NC(=O)[C@H](Cc2c[nH]c3ccccc23)NC(=O)[C@H](CC(=O)O)NC(=O)[C@H](Cc2ccc(OCC(=O)O)cc2)NC(=O)[C@H](Cc2ccsc2)NC(=O)CSC[C@@H](C(=O)NCCOCCOCC(=O)N[C@@H](CCCN)C(=O)NCCCCCCCCCCC(=O)O)NC(=O)[C@H](C(C)O)NC(=O)[C@H](C(C)C)NC(=O)[C@H](CC2CCCCC2)NC(=O)[C@H](CCN)NC1=O (stereo partly drawn) [Compound 3210] ({CH2CO}-[3Thi]Y(Carboxymethyl)DWV[Bip]V[Dab][dL][Dab][Cha]V[Thr(3ξ)]C[AEEA][Orn][Aun]-OH; thioether N-14)
  IC50: 0.008 µM
